Measurements reported in ChEMBL document CHEMBL5331129, “Discovery of NAFLD-Improving Agents by Promoting the Degradation of Keap1” (J Med Chem, 2023).
The source made the active and inactive calls. The calls are words filed in the database; no cut-off is given here.

Assays:
[1] = target: T1, Protein cereblon/Kelch-like ECH-associated protein 1 (Mus musculus) (UniProt Q9Z2X8+Q8C7D2); assay: PROTAC activity at CRBN/Keap1 in mouse AML12 cells assessed as degradation of Keap1 protein incubated for 6 to 48 hrs by Western blotting analysis; format: cell-based; details: time 6-48 hrs
Mus musculus [2] = assay: Antioxidant activity against MCD diet-induced oxidative stress in C57Bl/6 mouse model of NAFLD assessed as reduction of serum ALT level at 0.5 to 2 mg/kg,ip administrated for 4 weeks; format: functional, organism-based; details: dose 0.5-2 mg/kg
[3] = target: Protein cereblon/Kelch-like ECH-associated protein 1 (Mus musculus, UniProt Q9Z2X8+Q8C7D2); assay: PROTAC activity at CRBN/Keap1 in mouse AML12 cells assessed as degradation of Keap1 protein at 0.5 to 2 uM incubated for 48 hrs by Western blotting analysis; format: cell-based
[4] = Acute toxicity in C57BL/6 mouse assessed as histopathological change in liver at 20 mg/kg,ip qd administrated for 3 consecutive days and measured on day 4 by hematoxylin and eosin staining based assay; format: organism-based; details: in vivo
AML12 [5] = assay: Antioxidant activity against free fatty acid induced oxidative stress in mouse AML12 cells assessed as upregulation of Nrf2 protein expression level at 0.125 to 0.5 uM incubated for 24 hrs by immunofluorescence staining analysis; format: functional, cell-based; details: dose 0.125-0.5 µM
Mus musculus [6] = assay: Antioxidant activity against MCD diet-induced oxidative stress in C57Bl/6 mouse model of NAFLD assessed as increase in CAT level in liver at 0.5 to 2 mg/kg,ip administrated for 4 weeks; format: functional, organism-based; details: dose 0.5-2 mg/kg
AML12 [7] = assay: Antioxidant activity against free fatty acid induced oxidative stress in mouse AML12 cells assessed as reduction in total cholesterol level at 0.5 uM incubated for 24 hrs; format: functional, cell-based
[8] = Toxicity in MCD diet-induced oxidative stress in C57Bl/6 mouse model of NAFLD assessed as decrease in ratio of liver weight to body weight at ip administrated for 4 weeks […]; format: organism-based; details: in vivo, 672 h
[9] = Acute toxicity in zebrafish at < 5 uM observed at 48 hrs post fertilization; parameters: species or system Danio rerio; details: in vivo
Mus musculus [10] = assay: Antioxidant activity against MCD diet-induced oxidative stress in C57Bl/6 mouse model of NAFLD assessed as downregulation of liver Keap1 protein expression level at 0.5 to 2 mg/kg,ip administrated for 4 weeks by immunoblot analysis; format: functional, organism-based; details: dose 0.5-2 mg/kg
[11] = Toxicity in C57BL/6 mouse assessed as histopathological change in heart at 2 mg/kg,ip qd administrated for 4 weeks by hematoxylin and eosin staining based assay; format: organism-based; details: in vivo, 672 h
AML12 [12] = assay: Antioxidant activity against free fatty acid induced oxidative stress in mouse AML12 cells assessed as upregulation of HO-1 protein expression level at 0.125 to 0.5 uM incubated for 24 hrs by immunoblot analysis; format: functional, cell-based; details: dose 0.125-0.5 µM
Mus musculus [13] = assay: Antioxidant activity against MCD diet-induced oxidative stress in C57Bl/6 mouse model of NAFLD assessed as reduction of hepatic steatosis in liver at ip administrated for 4 weeks by hematoxylin and eosin staining based assay; format: functional, organism-based
[14] = Acute toxicity in C57BL/6 mouse assessed as histopathological change in spleen at 20 mg/kg,ip qd administrated for 3 consecutive days and measured on day 4 by hematoxylin and eosin staining based assay; format: organism-based; details: in vivo
Mus musculus [15] = assay: Antioxidant activity against MCD diet-induced oxidative stress in C57Bl/6 mouse model of NAFLD assessed as increase in SOD level in liver at 0.5 to 2 mg/kg,ip administrated for 4 weeks; format: functional, organism-based; details: dose 0.5-2 mg/kg
AML12 [16] = assay: Antioxidant activity against free fatty acid induced oxidative stress in mouse AML12 cells assessed as increase in SOD level at 0.125 to 0.5 uM; format: functional, cell-based; details: dose 0.125-0.5 µM
Mus musculus [17] = assay: Antioxidant activity against MCD diet-induced oxidative stress in C57Bl/6 mouse model of NAFLD assessed as reduction of morphological change in liver at ip administrated for 4 weeks by hematoxylin and eosin staining based assay; format: functional, organism-based
[18] = Acute toxicity in C57BL/6 mouse assessed as histopathological change in lung at 20 mg/kg,ip qd administrated for 3 consecutive days and measured on day 4 by hematoxylin and eosin staining based assay; format: organism-based; details: in vivo
Mus musculus [19] = assay: Antioxidant activity against MCD diet-induced oxidative stress in C57Bl/6 mouse model of NAFLD assessed as reduction of liver macrophage infiltration at 0.5 to 2 mg/kg,ip administrated for 4 weeks by immunostaining assay; format: functional, organism-based; details: dose 0.5-2 mg/kg
Mus musculus [20] = assay: Antioxidant activity against MCD diet-induced oxidative stress in C57Bl/6 mouse model of NAFLD assessed as reduction of serum TG level at 0.5 to 2 mg/kg,ip administrated for 4 weeks; format: functional, organism-based; details: dose 0.5-2 mg/kg
[21] = target: T1, Protein cereblon/Kelch-like ECH-associated protein 1 (Mus musculus); assay: PROTAC activity at CRBN/Keap1 in mouse AML12 cells assessed as degradation of Keap1 protein level at 1 uM preincubated with proteasome inhibitor, MG-132 followed by compound addition and incubated for 24 hrs by Western blotting analysis; format: cell-based
AML12 [22] = assay: Antioxidant activity against free fatty acid induced oxidative stress in mouse AML12 cells assessed as downregulation of Keap1 protein expression level at 0.125 to 0.5 uM incubated for 24 hrs by immunofluorescence staining analysis; format: functional, cell-based; details: dose 0.125-0.5 µM
[23] = Toxicity in C57BL/6 mouse assessed as histopathological change in kidney at 2 mg/kg,ip qd administrated for 4 weeks by hematoxylin and eosin staining based assay; format: organism-based; details: in vivo, 672 h
[24] = target: Kelch-like ECH-associated protein 1 (Homo sapiens, UniProt Q14145); assay: Binding affinity to Keap1 (unknown origin) assessed as dissociation constant incubated for 200 sec by sensor chip immobilization based surface plasmon resonance analysis
AML12 [25] = assay: Antioxidant activity against free fatty acid induced oxidative stress in mouse AML12 cells assessed as downregulation of Keap1 protein expression level at 0.125 to 0.5 uM incubated for 24 hrs by immunoblot analysis; format: functional, cell-based; details: dose 0.125-0.5 µM
[26] = target: T1, Protein cereblon/Kelch-like ECH-associated protein 1 (Mus musculus); assay: PROTAC activity at CRBN/Keap1 in mouse AML12 cells assessed as degradation of Keap1 protein at 0.5 to 2 uM incubated for 24 hrs by Western blotting analysis; format: cell-based; details: dose 0.5-2 µM
Mus musculus [27] = assay: Antioxidant activity against MCD diet-induced oxidative stress in C57Bl/6 mouse model of NAFLD assessed as increase in serum HDL-C level at ip administrated for 4 weeks; format: functional, organism-based
[28] = target: Protein cereblon/Kelch-like ECH-associated protein 1 (Mus musculus, UniProt Q8C7D2+Q9Z2X8); assay: PROTAC activity at CRBN/Keap1 in mouse AML12 cells assessed as reduction of Keap1 protein incubated for 24 hrs by Western blotting analysis; format: cell-based
Mus musculus [29] = assay: Antioxidant activity against MCD diet-induced oxidative stress in C57Bl/6 mouse model of NAFLD assessed as reduction of pericellular fibrosis in liver at ip administrated for 4 weeks by Sirius red staining based analysis; format: functional, organism-based
[30] = Toxicity in C57BL/6 mouse assessed as change in body weight at 2 mg/kg,ip qd administrated for 4 weeks; format: organism-based; details: in vivo, 672 h
Mus musculus [31] = assay: Antioxidant activity against MCD diet-induced oxidative stress in C57Bl/6 mouse model of NAFLD assessed as reduction of serum AST level at 0.5 to 2 mg/kg,ip administrated for 4 weeks; format: functional, organism-based; details: dose 0.5-2 mg/kg
Mus musculus [32] = assay: Antioxidant activity against MCD diet-induced oxidative stress in C57Bl/6 mouse model of NAFLD assessed as increase in GSH level in liver at 0.5 to 2 mg/kg,ip administrated for 4 weeks; format: functional, organism-based; details: dose 0.5-2 mg/kg

T1 sequence (Q8C7D2 whole entry, looked up): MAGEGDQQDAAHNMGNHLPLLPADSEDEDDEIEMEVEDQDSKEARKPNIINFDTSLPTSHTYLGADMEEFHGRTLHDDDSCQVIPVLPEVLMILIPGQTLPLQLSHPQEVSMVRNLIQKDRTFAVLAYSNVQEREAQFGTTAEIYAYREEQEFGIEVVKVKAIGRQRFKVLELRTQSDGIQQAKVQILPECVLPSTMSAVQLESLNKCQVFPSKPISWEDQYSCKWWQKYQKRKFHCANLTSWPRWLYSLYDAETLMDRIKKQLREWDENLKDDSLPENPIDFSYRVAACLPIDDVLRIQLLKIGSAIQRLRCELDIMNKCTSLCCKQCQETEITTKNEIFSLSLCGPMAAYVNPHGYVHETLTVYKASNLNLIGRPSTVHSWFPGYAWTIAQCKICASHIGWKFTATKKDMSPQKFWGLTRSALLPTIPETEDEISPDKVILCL
T1 sequence (Q9Z2X8 whole entry, looked up): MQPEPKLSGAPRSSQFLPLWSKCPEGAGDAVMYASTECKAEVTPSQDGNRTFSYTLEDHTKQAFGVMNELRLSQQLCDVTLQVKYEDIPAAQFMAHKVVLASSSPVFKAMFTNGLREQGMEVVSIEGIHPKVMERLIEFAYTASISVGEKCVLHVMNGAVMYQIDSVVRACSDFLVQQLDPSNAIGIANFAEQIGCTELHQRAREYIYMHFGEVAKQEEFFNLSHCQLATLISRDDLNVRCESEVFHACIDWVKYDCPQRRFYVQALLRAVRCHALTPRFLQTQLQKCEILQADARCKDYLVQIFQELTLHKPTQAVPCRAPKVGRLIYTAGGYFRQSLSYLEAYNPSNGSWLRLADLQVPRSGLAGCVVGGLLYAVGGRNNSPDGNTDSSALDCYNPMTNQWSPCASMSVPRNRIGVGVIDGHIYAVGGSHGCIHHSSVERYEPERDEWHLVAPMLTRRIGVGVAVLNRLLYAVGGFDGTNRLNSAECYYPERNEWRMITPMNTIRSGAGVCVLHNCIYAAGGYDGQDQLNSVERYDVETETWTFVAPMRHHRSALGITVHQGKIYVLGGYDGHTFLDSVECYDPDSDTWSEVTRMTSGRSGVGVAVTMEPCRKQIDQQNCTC
Sequence of Protein cereblon/Kelch-like ECH-associated protein 1 (Mus musculus, UniProt Q8C7D2+Q9Z2X8) (Q9Z2X8 whole entry): as the sequence (Q9Z2X8 whole entry, looked up) above
Sequence of Protein cereblon/Kelch-like ECH-associated protein 1 (Mus musculus, UniProt Q8C7D2+Q9Z2X8) (Q8C7D2 whole entry): as the sequence (Q8C7D2 whole entry, looked up) above
Sequence of Protein cereblon/Kelch-like ECH-associated protein 1 (Mus musculus, UniProt Q9Z2X8+Q8C7D2) (Q9Z2X8 whole entry): as the sequence (Q9Z2X8 whole entry, looked up) above
Sequence of Protein cereblon/Kelch-like ECH-associated protein 1 (Mus musculus, UniProt Q9Z2X8+Q8C7D2) (Q8C7D2 whole entry): as the sequence (Q8C7D2 whole entry, looked up) above
Sequence of Kelch-like ECH-associated protein 1 (Q14145 whole entry): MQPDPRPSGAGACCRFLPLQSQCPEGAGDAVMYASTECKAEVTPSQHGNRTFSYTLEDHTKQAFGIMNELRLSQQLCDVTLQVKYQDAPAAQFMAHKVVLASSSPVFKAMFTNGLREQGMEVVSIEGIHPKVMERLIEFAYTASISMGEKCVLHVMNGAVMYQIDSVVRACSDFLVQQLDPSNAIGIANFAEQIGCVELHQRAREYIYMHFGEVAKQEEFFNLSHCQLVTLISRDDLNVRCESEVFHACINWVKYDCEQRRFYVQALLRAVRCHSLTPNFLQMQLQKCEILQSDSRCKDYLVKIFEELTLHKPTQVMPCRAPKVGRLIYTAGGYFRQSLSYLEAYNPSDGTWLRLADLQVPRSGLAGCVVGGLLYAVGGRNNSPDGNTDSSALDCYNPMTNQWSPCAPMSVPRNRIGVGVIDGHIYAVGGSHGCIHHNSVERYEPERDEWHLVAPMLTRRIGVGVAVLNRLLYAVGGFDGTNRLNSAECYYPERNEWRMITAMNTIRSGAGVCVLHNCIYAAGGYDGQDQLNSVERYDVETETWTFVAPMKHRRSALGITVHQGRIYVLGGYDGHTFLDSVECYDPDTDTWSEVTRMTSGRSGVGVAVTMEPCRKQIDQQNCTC

## CC1(C)CC[C@]2(C(=O)NCCCCCNc3cccc4c3C(=O)N(C3CCC(=O)NC3=O)C4=O)CC[C@]3(C)[C@H](C(=O)C=C4C5(C)C=C(C#N)C(=O)C(C)(C)[C@@H]5CC[C@]43C)[C@@H]2C1 (single isomer, unassigned)
[1]
  Activity: Dose-Dependent Effect
Mus musculus [2]
  Activity: Active
[3]
  DC50: 0.21 µM
[4]
  Activity: Non-Toxic
AML12 [5]
  Activity: Active
Mus musculus [6]
  Activity: Active
AML12 [7]
  Activity: inactive
[8]
  Activity: Non-Toxic
[9]
  Activity: Non-Toxic
Mus musculus [10]
  Activity: Dose-Dependent Effect
[11]
  Activity: Non-Toxic
AML12 [12]
  Activity: Active
Mus musculus [13]
  Activity: Dose-Dependent Effect
[14]
  Activity: Non-Toxic
Mus musculus [15]
  Activity: Active
AML12 [16]
  Activity: Active
Mus musculus [17]
  Activity: Dose-Dependent Effect
[18]
  Activity: Non-Toxic
Mus musculus [19]
  Activity: Active
Mus musculus [20]
  Activity: Active
[21]
  Activity: inactive
AML12 [22]
  Activity: Active
[23]
  Activity: Non-Toxic
[24]
  Kd: 11.9 µM
AML12 [25]
  Activity: Active
[26]
  Activity: Active
Mus musculus [27]
  Activity: Dose-Dependent Effect
[28]
  IC50: 18.2 µM
Mus musculus [29]
  Activity: Dose-Dependent Effect
[30]
  Activity: Toxic
Mus musculus [31]
  Activity: Active
Mus musculus [32]
  Activity: Active
